# Measurements reported in US7071202B2 (SuperGen, Inc., priority 2002, dated 2006).
# Columns and labels:
# Grinding of Form A, XRPD = assay type: physicochemical; conditions: ground in an amalgamator for 10 minutes
# From the text: The XRPD data for the increased amorphous content material obtained by grinding a crystalline polymorph are plotted in FIG. 29. […] Further grinding is expected to increase the amorphous content and further broaden the XRPD pattern with the limit of the XRPD pattern being so broadened that it cannot be discerned above noise. When the XRPD pattern is broadened to the limit of being indiscernable, the material is no longer a crystalline material having increased amorphous content relative to unground crystallized material, but is a material that is wholly amorphous as defined herein.
# The sample was then analyzed using XRPD.
# [1] = Moisture sorption/desorption (VTI SGA-100 moisture balance); assay type: physicochemical; conditions: for hygroscopicity: from moisture sorption data, 5 to 95% RH; for Weight % chg: start, elapsed time 0.0 min, 25 deg C (RH 14.41% Form A, 9.87% Form B)
# From the text: The samples were not dried prior to analysis.
# [2] = XRPD after storage in a closed vial at ambient conditions; assay type: physicochemical; conditions: 31 days
# [3] = cited from earlier work
# [4] = Dehydration/desolvation under vacuum, XRPD; assay type: physicochemical
# From the text: The characterization of this weight loss as THF solvent is supported by the ^1H NMR data.
# human tumor xenografts = conditions: cited from earlier work
compound,measurement,setting,value
"CC[C@@]1(O)C(=O)OCc2c1cc1n(c2=O)Cc2cc3c([N+](=O)[O-])cccc3nc2-1 [Form A, 9-nitrocamptothecin]",effect of grinding on crystallinity (XRPD),"Grinding of Form A, XRPD",losing crystallinity after grinding
same,hysteresis between the hydration and dehydration curves,[1],A small amount of hysteresis
same,hygroscopicity,[1],not hygroscopic
same,Weight % chg,[1],0.0000%
"CC[C@@]1(O)C(=O)OCc2c1cc1n(c2=O)Cc2cc3c([N+](=O)[O-])cccc3nc2-1 [Form B, 9-nitrocamptothecin]",hysteresis between the hydration and dehydration curves,[1],essentially no hysterisis
same,hygroscopicity,[1],relatively hygroscopic
same,Weight % chg,[1],0.0000%
same,stability of the crystalline form (XRPD pattern vs FIG. 5),[2],relatively stable
CC[C@@](O)(C(=O)[O-])c1cc2n(c(=O)c1CO)Cc1cc3ccccc3nc1-2.[Na+] [Sodium camptothecin],side effects in clinical trials,[3]; administered intravenously,unpredictable side effects such as myelosuppression and hemorrhagic cystitis
same,activity in clinical trials,"[3]; solubilized by sodium hydroxide in water, intravenous",found to have antineoplastic activity
"CC[C@@]1(O)C(=O)OCc2c1cc1n(c2=O)Cc2cc3c([N+](=O)[O-])cccc3nc2-1 [Form C, 9-nitrocamptothecin]",form after attempt to desolvate under vacuum,[4],becomes amorphous
"CC[C@@]1(O)C(=O)OCc2c1cc1n(c2=O)Cc2cc3c([N+](=O)[O-])cccc3nc2-1 [9-nitrocamptothecin, 9-nitro-20(S)-camptothecin]",growth of human tumor xenografts,human tumor xenografts; immunodeficient nude mice,inhibited the growth of human tumor xenografts
same,regression of established human tumor xenografts,human tumor xenografts; nude mice,induced regression of human tumors
